Data as given in patent publication US8067589B2, “Heterocyclic compounds useful in treating diseases and conditions” (Pfizer Inc, priority 2007, dated 2011).

Each molecule was assayed against human recombinant H-PGDS (Homo sapiens, UniProt O60760) (assay: Fluoresecence Intensity h-PGDSTBA Enzyme Assay). Conditions: IC50, 5.0 μM PGH2, 2.5 mM L-Glutathione, 10 min preincubation, 4-parameter fit, highest inhibitor concentration typically 1 μM.
Sequence of human recombinant H-PGDS (O60760 whole entry): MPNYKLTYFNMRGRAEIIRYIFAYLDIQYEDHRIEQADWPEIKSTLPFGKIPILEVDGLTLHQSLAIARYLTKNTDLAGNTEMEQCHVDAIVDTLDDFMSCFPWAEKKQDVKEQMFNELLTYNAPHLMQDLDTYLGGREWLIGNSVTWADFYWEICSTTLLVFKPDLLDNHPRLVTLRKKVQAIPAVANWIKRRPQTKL

Compared with `N#Cc1cc(Cl)ccc1OCC(c1ccccc1)N1CCC(NC(=O)c2cnc(-c3cccc(F)c3)nc2)CC1` (centres unmarked) [Example 31, N-{1-[2-(4-Cchloro-2-cyanophenoxy)-1-phenylethyl]piperidin-4-yl}-2-(3-fluorophenyl)pyrimidine-5-carboxamide], `O=C(NC1CCN(C(COc2ccc(F)c(Cl)c2)c2ccccc2)CC1)c1cnc(-c2cccc(F)c2)nc1` (centres unmarked) [Example 42, N-{1-[2-(3-Chloro-4-fluorophenoxy)-1-phenylethyl]piperidin-4-yl}-2-(3-fluorophenyl)pyrimidine-5-carboxamide] is 7.1-fold higher in IC50: 7.68 nM for the first, 54.8 nM for the second. The first is the more potent here.

`O=C(NC1CCN(C(COc2c(F)cc(F)cc2F)c2ccccc2)CC1)c1cnc(-c2cccc(F)c2)nc1` (centres unmarked) [Example 32, 2-(3-Fluorophenyl)-N-{1-[1-phenyl-2-(2,4,6-trifluorophenoxy)ethyl]piperidin-4-yl}pyrimidine-5-carboxamide] and `O=C(NC1CCN(C(COc2cc(F)c(F)c(F)c2)c2ccccc2)CC1)c1cnc(-c2cccc(F)c2)nc1` (centres unmarked) [Example 50, 2-(3-Fluorophenyl)-N-{1-[1-phenyl-2-(3,4,5-trifluorophenoxy)ethyl]piperidin-4-yl}pyrimidine-5-carboxamide] are within 1.5-fold of each other in IC50: 8.91 nM for the first, 9.55 nM for the second.

First: O=C(NC1CCN(C(COc2c(F)ccc(Cl)c2F)c2ccccc2)CC1)c1cnc(-c2cccc(F)c2)nc1 (centres unmarked) [Example 33, N-{1-[2-(3-Chloro-2,6-difluorophenoxy)-1-phenylethyl]piperidin-4-yl}-2-(3-fluorophenyl)pyrimidine-5-carboxamide]
Second: Cc1ccc(Cl)c(OCC(c2ccccc2)N2CCC(NC(=O)c3cnc(-c4cccc(F)c4)nc3)CC2)c1F (centres unmarked) [Example 43, N-{1-[2-(6-Chloro-2-fluoro-3-methylphenoxy)-1-phenylethyl]piperidin-4-yl}-2-(3-fluorophenyl)pyrimidine-5-carboxamide]
The IC50 of the first is 2.3-fold lower: 15.5 nM for the first, 35 nM for the second. The first is the more potent here.

`O=C(NC1CCN(C(COc2cc(F)cc(F)c2)c2ccccc2)CC1)c1cnc(-c2cccc(F)c2)nc1` (centres unmarked) [Example 34, N-{1-[2-(3,5-Difluorophenoxy)-1-phenylethyl]piperidin-4-yl}-2-(3-fluorophenyl)pyrimidine-5-carboxamide] and `O=C(NC1CCN(C(COc2ccc(F)c(F)c2)c2ccccc2)CC1)c1cnc(-c2cccc(F)c2)nc1` (centres unmarked) [Example 49, N-{1-[2-(3,4-Difluorophenoxy)-1-phenylethyl]piperidin-4-yl}-2-(3-fluorophenyl)pyrimidine-5-carboxamide] are within 1.5-fold of each other in IC50: 6.46 nM for the first, 6.26 nM for the second.

`O=C(NC1CCN(CC2CC2)CC1)c1cnc(-c2cccc(F)c2)nc1` [Example 35, N-[1-(Cyclopropylmethyl)piperidin-4-yl]-2-(3-fluorophenyl)pyrimidine-5-carboxamide] and `O=C(NC1CCN(CC2CCCCC2)CC1)c1cnc(-c2cccc(F)c2)nc1` [Example 52, N-[1-(Cyclohexylmethyl)piperidin-4-yl]-2-(3-fluorophenyl)pyrimidine-5-carboxamide] are within 1.5-fold of each other in IC50: 0.62 nM for the first, 0.457 nM for the second.

Going from `O=C(NC1CCN(Cc2ccc(OC(F)(F)F)cc2)CC1)c1cnc(-c2cccc(F)c2)nc1` [Example 36, 2-(3-Fluorophenyl)-N-{1-[4-(trifluoromethoxy)benzyl]piperidin-4-yl}pyrimidine-5-carboxamide] to `O=C(NC1CCN(Cc2ccc(F)cc2)CC1)c1cnc(-c2cccc(F)c2)nc1` [Example 63, N-[1-(4-Fluorobenzyl)piperidin-4-yl]-2-(3-fluorophenyl)pyrimidine-5-carboxamide], the IC50 falls from 4.54 nM to 0.509 nM (8.9-fold). The second is the more potent here.

Going from `O=C(NC1CCN(Cc2ccc(C(F)(F)F)c(F)c2)CC1)c1cnc(-c2cccc(F)c2)nc1` [Example 37, 2-(3-Fluorophenyl)-N-{1-[3-fluoro-4-(trifluoromethyl)benzyl]piperidin-4-yl}pyrimidine-5-carboxamide] to `O=C(NC1CCN(Cc2cccc(F)c2)CC1)c1cnc(-c2cccc(F)c2)nc1` [Example 65, N-[1-(3-Fluorobenzyl)piperidin-4-yl]-2-(3-fluorophenyl)pyrimidine-5-carboxamide], the IC50 falls from 7.07 nM to 0.335 nM (21-fold).

Going from `O=C(NC1CCN(C(COc2ccccc2)c2ccccc2)CC1)c1cnc(-c2cccc(F)c2)nc1` (centres unmarked) [Example 38, 2-(3-Fluorophenyl)-N-[1-(2-phenoxy-1-phenylethyl)piperidin-4-yl]pyrimidine-5-carboxamide] to `O=C(NC1CCN(C(COc2cccc(Cl)c2)c2ccccc2)CC1)c1cnc(-c2cccc(F)c2)nc1` (centres unmarked) [Example 41, N-{1-[2-(3-Chlorophenoxy)-1-phenylethyl]piperidin-4-yl}-2-(3-fluorophenyl)pyrimidine-5-carboxamide], the IC50 rises from 6.71 nM to 10.2 nM (1.5-fold).

First: COc1cccc(OCC(c2ccccc2)N2CCC(NC(=O)c3cnc(-c4cccc(F)c4)nc3)CC2)c1 (centres unmarked) [Example 39, 2-(3-Fluorophenyl)-N-{1-[2-(3-methoxyphenoxy)-1-phenylethyl]piperidin-4-yl}pyrimidine-5-carboxamide]
Second: COc1ccc(OCC(c2ccccc2)N2CCC(NC(=O)c3cnc(-c4cccc(F)c4)nc3)CC2)cc1 (centres unmarked) [Example 58, 2-(3-Fluorophenyl)-N-{1-[2-(4-methoxyphenoxy)-1-phenylethyl]piperidin-4-yl}pyrimidine-5-carboxamide]
The IC50 of the first is 2.1-fold higher: 4.44 nM for the first, 2.08 nM for the second.

First: N#Cc1cccc(OCC(c2ccccc2)N2CCC(NC(=O)c3cnc(-c4cccc(F)c4)nc3)CC2)c1 (centres unmarked) [Example 40, N-{1-[2-(3-Cyanophenoxy)-1-phenylethyl]piperidin-4-yl}-2-(3-fluorophenyl)pyrimidine-5-carboxamide]
Second: O=C(NC1CCN(C(COc2ccc(F)cc2)c2ccccc2)CC1)c1cnc(-c2cccc(F)c2)nc1 (centres unmarked) [Example 44, N-{1-[2-(4-Fluorophenoxy)-1-phenylethyl]piperidin-4-yl}-2-(3-fluorophenyl)pyrimidine-5-carboxamide]
The IC50 of the first is 5.4-fold lower: 3.02 nM for the first, 16.2 nM for the second. The first is the more potent here.

`Cc1cc(OCC(c2ccccc2)N2CCC(NC(=O)c3cnc(-c4cccc(F)c4)nc3)CC2)ccc1F` (centres unmarked) [Example 45, N-{1-[2-(4-Fluoro-3-methylphenoxy)-1-phenylethyl]piperidin-4-yl}-2-(3-fluorophenyl)pyrimidine-5-carboxamide] and `Cc1ccc(OCC(c2ccccc2)N2CCC(NC(=O)c3cnc(-c4cccc(F)c4)nc3)CC2)cc1C` (centres unmarked) [Example 56, N-{1-[2-(3,4-Dimethylphenoxy)-1-phenylethyl]piperidin-4-yl}-2-(3-fluorophenyl)pyrimidine-5-carboxamide] are the same in IC50: 14.2 nM for the first, 14.2 nM for the second.

`CCc1ccc(OCC(c2ccccc2)N2CCC(NC(=O)c3cnc(-c4cccc(F)c4)nc3)CC2)cc1` (centres unmarked) [Example 46, N-{1-[2-(4-Ethylphenoxy)-1-phenylethyl]piperidin-4-yl}-2-(3-fluorophenyl)pyrimidine-5-carboxamide] and `O=C(NC1CCN(C(COc2ccc(C(F)(F)F)cc2)c2ccccc2)CC1)c1cnc(-c2cccc(F)c2)nc1` (centres unmarked) [Example 48, 2-(3-Fluorophenyl)-N-(1-{1-phenyl-2-[4-(trifluoromethyl)phenoxy]ethyl}piperidin-4-yl)pyrimidine-5-carboxamide] are within 1.5-fold of each other in IC50: 23.8 nM for the first, 29.6 nM for the second.

`O=C(NC1CCN(C(COc2ccc(F)cc2F)c2ccccc2)CC1)c1cnc(-c2cccc(F)c2)nc1` (centres unmarked) [Example 47, N-{1-[2-(2,4-Difluorophenoxy)-1-phenylethyl]piperidin-4-yl}-2-(3-fluorophenyl)pyrimidine-5-carboxamide] and `O=C(NC1CCN(C(COc2cc(F)ccc2F)c2ccccc2)CC1)c1cnc(-c2cccc(F)c2)nc1` (centres unmarked) [Example 51, N-{1-[2-(2,5-Difluorophenoxy)-1-phenylethyl]piperidin-4-yl}-2-(3-fluorophenyl)pyrimidine-5-carboxamide] are within 1.5-fold of each other in IC50: 10.2 nM for the first, 10 nM for the second.

`O=C(NC1CCN(C(COc2cccc(F)c2F)c2ccccc2)CC1)c1cnc(-c2cccc(F)c2)nc1` (centres unmarked) [Example 53, N-{1-[2-(2,3-Difluorophenoxy)-1-phenylethyl]piperidin-4-yl}-2-(3-fluorophenyl)pyrimidine-5-carboxamide] and `O=C(NC1CCN(C(COc2ccc(F)c(F)c2F)c2ccccc2)CC1)c1cnc(-c2cccc(F)c2)nc1` (centres unmarked) [Example 55, 2-(3-Fluorophenyl)-N-{1-[1-phenyl-2-(2,3,4-trifluorophenoxy)ethyl]piperidin-4-yl}pyrimidine-5-carboxamide] are within 1.5-fold of each other in IC50: 59.2 nM for the first, 45.4 nM for the second.

Going from `COc1ccccc1OCC(c1ccccc1)N1CCC(NC(=O)c2cnc(-c3cccc(F)c3)nc2)CC1` (centres unmarked) [Example 54, 2-(3-Fluorophenyl)-N-{1-[2-(2-methoxyphenoxy)-1-phenylethyl]piperidin-4-yl}pyrimidine-5-carboxamide] to `Cc1cc(F)ccc1OCC(c1ccccc1)N1CCC(NC(=O)c2cnc(-c3cccc(F)c3)nc2)CC1` (centres unmarked) [Example 57, N-{1-[2-(4-Fluoro-2-methylphenoxy)-1-phenylethyl]piperidin-4-yl}-2-(3-fluorophenyl)pyrimidine-5-carboxamide], the IC50 rises from 6.13 nM to 11.4 nM (1.9-fold).

First: Cc1ccc(F)c(OCC(c2ccccc2)N2CCC(NC(=O)c3cnc(-c4cccc(F)c4)nc3)CC2)c1 (centres unmarked) [Example 59, N-{1-[2-(2-Fluoro-5-methylphenoxy)-1-phenylethyl]piperidin-4-yl}-2-(3-fluorophenyl)pyrimidine-5-carboxamide]
Second: O=C(NC1CCN(Cc2ccccc2F)CC1)c1cnc(-c2cccc(F)c2)nc1 [Example 64, N-[1-(2-Fluorobenzyl)piperidin-4-yl]-2-(3-fluorophenyl)pyrimidine-5-carboxamide]
The IC50 of the first is 51-fold higher: 8.16 nM for the first, 0.16 nM for the second.

Going from `Cc1nc(N2CCC(NC(=O)c3cnc(-c4cccc(F)c4)nc3)CC2)[nH]c(=O)c1CCO` [Example 60, 2-(3-Fluorophenyl)-N-{1-[5-(2-hydroxyethyl)-4-methyl-6-oxo-1,6-dihydropyrimidin-2-yl]piperidin-4-yl}pyrimidine-5-carboxamide] to `CCCCN1CCC(NC(=O)c2cnc(-c3cccc(F)c3)nc2)CC1` [Example 61, N-(1-Butylpiperidin-4-yl)-2-(3-fluorophenyl)pyrimidine-5-carboxamide], the IC50 falls from 1.02 nM to 0.58 nM (1.8-fold).

For `Cc1ccccc1CN1CCC(NC(=O)c2cnc(-c3cccc(F)c3)nc2)CC1` [Example 62, 2-(3-Fluorophenyl)-N-[1-(2-methylbenzyl)piperidin-4-yl]pyrimidine-5-carboxamide], the IC50 was 0.489 nM.
